One experiment concerns the target T1, MDM2 (Homo sapiens, UniProt Q00987).
T1 construct: residues 1–110
Put plainly: competitive fluorescence polarisation, % inhibition at […]. The settings on record: read-out: Protein binding inhibition at 1 μM(%) ^a / MDM2.

For the next experiment, the target named is T2, MDMX (Homo sapiens, UniProt O15151).
T2 construct: gene MDM4; residues 1–110
T2 sequence (O15151 1-110): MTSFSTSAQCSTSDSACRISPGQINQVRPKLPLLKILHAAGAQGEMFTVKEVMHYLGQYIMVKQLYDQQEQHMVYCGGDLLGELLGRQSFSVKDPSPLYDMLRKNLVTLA
The experiment is described as above. The following applies: read-out: Protein binding inhibition at 1 μM(%) ^a / MDMX.

On to `COC(=C1C(=O)Nc2cc(Cl)ccc21)c1ccccc1` [H3, 6-chloro-3-(methoxy(phenyl)methylene) indolin-2-one], for which the inhibition at 1 µM on MDM2 is 72.8 ± 5.6%; on MDMX it was 57.9 ± 6.1%.

Turning to `COC(=C1C(=O)Nc2cc(F)ccc21)c1ccccc1` [H5, 6-fluoro-3-(methoxy(phenyl)methylene) indolin-2-one], the inhibition at 1 µM at MDM2 came out at 56.8 ± 1.9%.

Turning to `COC(=C1C(=O)Nc2cc(Cl)c(F)cc21)c1ccccc1` [H6, 6-chloro-5-fluoro-3-(methoxy(phenyl)methylene) indolin-2-one], at MDM2, the inhibition at 1 µM came to 50.3 ± 2.5%.

Regarding `O=C1Nc2cc(Cl)ccc2C1=C(c1ccccc1)N1CCCC1` [H7, 6-chloro-3-(phenyl(pyrrolidin-1-yl)methylene)indolin-2-one], the inhibition at 1 µM on MDM2 amounted to 52.6 ± 2.1%.

Values taken from publication PMC11721856, “Searching for novel MDM2/MDMX dual inhibitors through a drug repurposing approach” (Journal of Enzyme Inhibition and Medicinal Chemistry, 2023).
